These molecules were tested on RSV A2 strain (assay: In vitro CPE (CytoPathic Effect) inhibition effect evaluation test, RSV type A). Settings: human respiratory syncytial virus; inhibitory effect against RSV type A (RSV A2 strain), HEp-2 cells, CPE inhibition; read-out: EC50.
Type: cell-based
Method in brief: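 HEp-2 cells (2.4×10^5 cells/mL, 2% FBS E-MEM) were infected with RSV alongside 3-fold compound dilutions and incubated at 37 °C, 4 days for A2 and 5 days for B Wash/18537. Viable cells quantified by CellTiter-Glo 2.0 luminescence; EC50 by nonlinear regression as 50% CPE inhibition.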

SMILES	EC50
Cn1ccc(CCOc2ccc3c(-c4ncc(C(=O)NC5(C(=O)O)C6CC7CC(C6)CC5C7)c(C(F)(F)F)n4)cn(C4CCC(F)(F)CC4)c3c2)n1 (stereo not shown) [Compound I-366]	< 10 nM
O=C(NC1(C(=O)O)C2CC3CC(C2)CC1C3)c1cnc(-c2cn(C3CCC(F)(F)CC3)c3cc(OC4CCC5(CC4)CN(c4ncccn4)C5)ccc23)nc1C(F)(F)F (stereo not shown) [Compound I-369]	< 10 nM
O=C(NC1(C(=O)O)C2CC3CC(C2)CC1C3)c1cnc(-c2cn(C3CCC(F)(F)CC3)c3cc(OC4CCN(c5ncccn5)CC4F)ccc23)nc1C(F)(F)F (stereo not shown) [Compound I-371]	< 10 nM
O=C(NC1(C(=O)O)C2CC3CC(C2)CC1C3)c1cnc(-c2cn(C3CCC(F)(F)CC3)c3cc(OCCNc4ncccn4)ccc23)nc1C(F)(F)F (stereo not shown) [Compound I-372]	< 10 nM
O=C(NC1(C(=O)O)C2CC3CC(C2)CC1C3)c1cnc(-c2cn(C3CCC(F)(F)CC3)c3cc(O[C@@H]4CCN(CC(F)(F)F)C4)ccc23)nc1C(F)(F)F (stereo partly shown) [Compound I-374]	< 10 nM
O=C(NC1(C(=O)O)C2CC3CC(C2)CC1C3)c1cnc(-c2cn(C3CCC(F)(F)CC3)c3cc(O[C@H]4CCN(CC(F)(F)F)C4)ccc23)nc1C(F)(F)F (stereo partly shown) [Compound I-375]	< 10 nM
CC1CN(c2ncc(F)cn2)CCC1Oc1ccc2c(-c3ncc(C(=O)NC4(C(=O)O)C5CC6CC(C5)CC4C6)c(C(F)(F)F)n3)cn(C3CCC(F)(F)CC3)c2c1 (stereo not shown) [Compound I-376]	< 10 nM
O=C(NC1(C(=O)O)C2CC3CC(C2)CC1C3)c1cnc(-c2cn(C3CCC(F)(F)CC3)c3cc(O[C@H]4CCN(c5ncc(F)cn5)C4)ccc23)nc1C(F)(F)F (stereo partly shown) [Compound I-377]	< 10 nM
COC1CC(n2cc(-c3ncc(C(=O)NC4(C(=O)O)C5CC6CC(C5)CC4C6)c(C(F)(F)F)n3)c3ccc(OC4CCN(c5ncc(F)cn5)CC4)cc32)C1 (stereo not shown) [Compound I-378]	< 10 nM
O=C(NC1(C(=O)O)C2CC3CC(C2)CC1C3)c1cnc(N2CC3(CCOCC3)c3cc(OCC(F)(F)F)ccc32)nc1C(F)(F)F (stereo not shown) [Compound I-381]	< 10 nM
O=C(NC1(C(=O)O)C2CC3CC(C2)CC1C3)c1cnc(N2CC3(CCCCC3)c3cc(OC4CCN(c5ncc(F)cn5)CC4)ccc32)nc1C(F)(F)F (stereo not shown) [Compound I-383]	< 10 nM
O=C(NC1(C(=O)O)C2CC3CC(C2)CC1C3)c1cnc(-c2cn(C3CCC(F)(F)CC3)c3cc(OC4CN(c5ncc(F)cn5)C4)ccc23)nc1C(F)(F)F (stereo not shown) [Compound I-387]	< 10 nM
O=C(NC1(C(=O)O)C2CC3CC(C2)CC1C3)c1cnc(-c2cn(C3CCC(F)(F)CC3)c3cc(OC4CN(CC(F)(F)F)C4)ccc23)nc1C(F)(F)F (stereo not shown) [Compound I-388]	< 10 nM
O=C(NC1(C(=O)O)C2CC3CC(C2)CC1C3)c1ccc(-c2cn(-c3ccc(F)cc3)c3cc(OC4CCN(c5ncccn5)CC4)ccc23)nc1C(F)(F)F (stereo not shown) [Compound I-389]	< 10 nM
O=C(NC1(C(=O)O)C2CC3CC(C2)CC1C3)c1ccc(-c2cn(-c3cccc(F)c3)c3cc(OC4CCN(c5ncccn5)CC4)ccc23)nc1C(F)(F)F (stereo not shown) [Compound I-390]	< 10 nM
O=C(NC1(C(=O)O)C2CC3CC(C2)CC1C3)c1cnc(N2CC3(CCCCC3)c3cc(OC4CCN(c5ncccn5)CC4)c(F)cc32)nc1C(F)(F)F (stereo not shown) [Compound I-394]	< 10 nM
CC1CN(CC(F)(F)F)CCC1Oc1ccc2c(-c3ncc(C(=O)NC4(C(=O)O)C5CC6CC(C5)CC4C6)c(C(F)(F)F)n3)cn(C3CCC(F)(F)CC3)c2c1 (stereo not shown) [Compound I-403]	< 10 nM
O=C(NC1(C(=O)O)C2CC3CC(C2)CC1C3)c1cnc(-c2cn(C3CCC(F)(F)CC3)c3cc(OC4CCN(CC(F)(F)C(F)(F)F)CC4)ccc23)nc1C(F)(F)F (stereo not shown) [Compound I-408]	< 10 nM
O=C(NC1(C(=O)O)C2CC3CC(C2)CC1C3)c1cnc(-c2cn(C3CCC(F)(F)CC3)c3cc(OC4CCN(CC(F)(F)C(F)F)CC4)ccc23)nc1C(F)(F)F (stereo not shown) [Compound I-409]	< 10 nM
O=C(NC1(C(=O)O)C2CC3CC(C2)CC1C3)c1cnc(-c2cn(C3CCC(F)(F)CC3)c3cc(OC4CCN(c5cc(F)ccn5)CC4)ccc23)nc1C(F)(F)F (stereo not shown) [Compound I-411]	< 10 nM
CC1CC(Oc2ccc3c(-c4ncc(C(=O)NC5(C(=O)O)C6CC7CC(C6)CC5C7)c(C(F)(F)F)n4)cn(C4CCC(F)(F)CC4)c3c2)CCN1CC(F)(F)F (stereo not shown) [Compound I-414]	< 10 nM
O=C(NC1(C(=O)O)C2CC3CC(C2)CC1C3)c1cnc(-c2cn(C3CCC(F)(F)CC3)c3cc(C(=O)N4CCC(N5CC(F)(F)C5)CC4)ccc23)nc1C(F)(F)F (stereo not shown) [Compound I-416]	< 10 nM
O=C(NC1(C(=O)O)C2CC3CC(C2)CC1C3)c1cnc(-c2cn(C3CCC(F)(F)CC3)c3cc(CN4CCC(N5CC(F)(F)C5)CC4)ccc23)nc1C(F)(F)F (stereo not shown) [Compound I-417]	< 10 nM

Same assay, conditions: inhibitory effect against RSV type A (RSV A2 strain), HEp-2 cells, CPE inhibition; read-out: EC50

SMILES	EC50
O=C(NC1(C(=O)O)C2CC3CC(C2)CC1C3)c1ccc(-c2cn(-c3ncccc3C(F)(F)F)c3cc(OC4CCN(c5ncccn5)CC4)ccc23)nc1C(F)(F)F (stereo not shown) [Compound I-316]	< 10 nM
Cc1cnccc1-n1cc(-c2ccc(C(=O)NC3(C(=O)O)C4CC5CC(C4)CC3C5)c(C(F)(F)F)n2)c2ccc(OC3CCN(c4ncccn4)CC3)cc21 (stereo not shown) [Compound I-317]	< 10 nM
COc1ccccc1-n1cc(-c2ccc(C(=O)NC3(C(=O)O)C4CC5CC(C4)CC3C5)c(C(F)(F)F)n2)c2ccc(OC3CCN(c4ncccn4)CC3)cc21 (stereo not shown) [Compound I-318]	< 10 nM
O=C(Nc1ccc2c(c1)C1(CCOCC1)CN2c1ncc(C(=O)NC2(C(=O)O)C3CC4CC(C3)CC2C4)c(C(F)(F)F)n1)c1ccccc1 (stereo not shown) [Compound I-323]	< 10 nM
COc1cccnc1-n1cc(-c2ccc(C(=O)NC3(C(=O)O)C4CC5CC(C4)CC3C5)c(C(F)(F)F)n2)c2ccc(OC3CCN(c4ncccn4)CC3)cc21 (stereo not shown) [Compound I-325]	< 10 nM
O=C(NC1(C(=O)O)C2CC3CC(C2)CC1C3)c1ccc(-c2cn(-c3ccccc3C(F)(F)F)c3cc(OC4CCN(c5ncccn5)CC4)ccc23)nc1C(F)(F)F (stereo not shown) [Compound I-327]	< 10 nM
Cn1cc(-n2cc(-c3ccc(C(=O)NC4(C(=O)O)C5CC6CC(C5)CC4C6)c(C(F)(F)F)n3)c3ccc(OC4CCN(c5ncccn5)CC4)cc32)cn1 (stereo not shown) [Compound I-328]	< 10 nM
O=C(NC1(C(=O)O)C2CC3CC(C2)CC1C3)c1ccc(-c2cn(-c3ccncc3C(F)(F)F)c3cc(OC4CCN(c5ncccn5)CC4)ccc23)nc1C(F)(F)F (stereo not shown) [Compound I-329]	< 10 nM
O=C(NC1(C(=O)O)C2CC3CC(C2)CC1C3)c1cnc(N2CC3(CCOCC3)c3cc(OC4CCN(c5ncccn5)CC4)cc(F)c32)nc1C(F)(F)F (stereo not shown) [Compound I-332]	< 10 nM
Cn1ccc(-n2cc(-c3ccc(C(=O)NC4(C(=O)O)C5CC6CC(C5)CC4C6)c(C(F)(F)F)n3)c3ccc(OC4CCN(c5ncccn5)CC4)cc32)c1 (stereo not shown) [Compound I-334]	< 10 nM
N#Cc1cccc(-n2cc(-c3ccc(C(=O)NC4(C(=O)O)C5CC6CC(C5)CC4C6)c(C(F)(F)F)n3)c3ccc(OC4CCN(c5ncccn5)CC4)cc32)c1 (stereo not shown) [Compound I-336]	< 10 nM
N#Cc1ccc(-n2cc(-c3ccc(C(=O)NC4(C(=O)O)C5CC6CC(C5)CC4C6)c(C(F)(F)F)n3)c3ccc(OC4CCN(c5ncccn5)CC4)cc32)cc1 (stereo not shown) [Compound I-337]	< 10 nM
N#Cc1cccnc1-n1cc(-c2ccc(C(=O)NC3(C(=O)O)C4CC5CC(C4)CC3C5)c(C(F)(F)F)n2)c2ccc(OC3CCN(c4ncccn4)CC3)cc21 (stereo not shown) [Compound I-338]	< 10 nM
N#Cc1cccc(-n2cc(-c3ccc(C(=O)NC4(C(=O)O)C5CC6CC(C5)CC4C6)c(C(F)(F)F)n3)c3ccc(OC4CCN(c5ncccn5)CC4)cc32)n1 (stereo not shown) [Compound I-339]	< 10 nM
N#Cc1ccc(-n2cc(-c3ccc(C(=O)NC4(C(=O)O)C5CC6CC(C5)CC4C6)c(C(F)(F)F)n3)c3ccc(OC4CCN(c5ncccn5)CC4)cc32)nc1 (stereo not shown) [Compound I-340]	< 10 nM
O=C(NC1(C(=O)O)C2CC3CC(C2)CC1C3)c1cnc(N2CC3(CCOCC3)c3cc(NS(=O)(=O)c4ccccc4)ccc32)nc1C(F)(F)F (stereo not shown) [Compound I-342]	100 to 5000 nM
CN(C(=O)c1ccccc1)c1ccc2c(c1)C1(CCOCC1)CN2c1ncc(C(=O)NC2(C(=O)O)C3CC4CC(C3)CC2C4)c(C(F)(F)F)n1 (stereo not shown) [Compound I-343]	10 to 100 nM
CN(c1ccc2c(c1)C1(CCOCC1)CN2c1ncc(C(=O)NC2(C(=O)O)C3CC4CC(C3)CC2C4)c(C(F)(F)F)n1)S(=O)(=O)c1ccccc1 (stereo not shown) [Compound I-344]	10 to 100 nM
O=C(NC1(C(=O)O)C2CC3CC(C2)CC1C3)c1cnc(N2CC3(CCOCC3)c3cc(Br)ccc32)nc1C(F)(F)F (stereo not shown) [Compound I-347]	< 10 nM
O=C(NC1(C(=O)O)C2CC3CC(C2)CC1C3)c1cnc(N2CC3(CCOCC3)c3cc(Oc4ccccc4)ccc32)nc1C(F)(F)F (stereo not shown) [Compound I-348]	< 10 nM
O=C(NC1(C(=O)O)C2CC3CC(C2)CC1C3)c1cnc(N2CC3(CCOCC3)c3cc(C4=CCCN(c5ncccn5)C4)ccc32)nc1C(F)(F)F (stereo not shown) [Compound I-349]	< 10 nM
Cn1cc2c(n1)CCN(Cc1ccc3c(c1)C1(CCOCC1)CN3c1ncc(C(=O)NC3(C(=O)O)C4CC5CC(C4)CC3C5)c(C(F)(F)F)n1)C2 (stereo not shown) [Compound I-351]	10 to 100 nM
O=C(NC1(C(=O)O)C2CC3CC(C2)CC1C3)c1cnc(N2CC3(CCOCC3)c3cc(CN4CCC5(CC4)COC5)ccc32)nc1C(F)(F)F (stereo not shown) [Compound I-352]	10 to 100 nM
O=C(NC1(C(=O)O)C2CC3CC(C2)CC1C3)c1ccc(-c2cn(C3=CCC(F)(F)CC3)c3cc(OC4CCN(c5ncc(F)cn5)CC4)ccc23)nc1C(F)(F)F (stereo not shown) [Compound I-359]	< 10 nM
O=C(NC1(C(=O)O)C2CC3CC(C2)CC1C3)c1cnc(N2CC3(CCOCC3)c3cc(CN4CCN(c5ncccn5)CC4)ccc32)nc1C(F)(F)F (stereo not shown) [Compound I-360]	< 10 nM
O=C(NC1(C(=O)O)C2CC3CC(C2)CC1C3)c1cnc(N2CC3(CCS(=O)(=O)CC3)c3cc(OC4CCN(c5ncc(F)cn5)CC4)ccc32)nc1C(F)(F)F (stereo not shown) [Compound I-365]	< 10 nM
